Test [1] addresses Cys242 in human PIK3CA (157-299) (Homo sapiens (Human), UniProt P42336). Description: Covalent modification assay using MALDI-TOF MS. The test is classed as biochemical. Particulars: 4 h reaction time point. The essentials:
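Covalent adduct formation was read by linear-mode MALDI-TOF with sinapinic acid matrix, reported as modified-protein peak height divided by total protein peak heights. Reactions held PIK3CA (157-299) at 1 or 3.33 μM in HEPES/NaCl/MgCl2 buffer, pH 7.3, sampled after 15 min to 4 h at room temperature.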

Test [2] deals with pAKT in BT474 cells. The test can be described thus: Cell-based pAKT HTRF assay in BT474 cells. The settings on record: BT474 cells, 4 hr incubation, read-out: pAKT inhibition IC50 in BT474 cells. The method in brief:
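BT474 cells in DMEM/10% FBS were treated the day after seeding with a 9-point, 3-fold compound series from 3 μM (0.25% DMSO) for 4 hr. Lysates were mixed with d2 and Eu cryptate anti-pAKT antibodies and incubated 4-24 h at room temperature. HTRF was read with excitation at 320 nm and emission at 615 nm.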

Where [3] appears, read: 3.33 μM protein target, 1:7.5 protein to compound ratio (compounds 1-852).
[4] abbreviates: Homo sapiens, BT-474, Compounds 10-999.
Setting [5] is: 1 μM protein target, 1:5 protein to compound ratio (compounds 853-1279).

The values below come from patent publication US20250230138A1, “COMPOUNDS HAVING A T-STRUCTURE FORMED BY AT LEAST FOUR CYCLES FOR USE IN THE TREATMENT OF CANCER AND OTHER INDICATIONS” (TheRas, Inc., priority 2022, published 2025).

Structures are written as SMILES. Like-named read-outs stand apart in the source and are kept apart here.

Sequence of Cys242 in human PIK3CA (157-299) (P42336 157-299): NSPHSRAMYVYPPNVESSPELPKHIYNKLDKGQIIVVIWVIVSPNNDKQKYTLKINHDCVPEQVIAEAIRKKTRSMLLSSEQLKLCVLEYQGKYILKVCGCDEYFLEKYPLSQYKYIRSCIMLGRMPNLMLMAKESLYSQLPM

On to `C=CC(=O)N1CCc2nc(-c3nc(-c4cnc5c(c4)CN(C)CC5)c4ccsc4c3-c3c(F)cc(F)cc3OC(C)C)sc2C1` [Compound 309], for which the “% of modification” value in test [1] (setting [3]) was “A (percent of modification of PIK3CA protein ≥75%)”. Moreover, the IC50 in test [2] (Compounds 10-999) is under 100 nM.
For `C=CC(=O)N1CCc2nc(-c3nc(-c4ccc5c(c4)CNC5=O)c4ccsc4c3-c3c(F)cc(F)cc3OC(C)C)sc2C1` [Compound 311, 5-[7-(2,4-difluoro-6-isopropoxy-phenyl)-6-(5-prop-2-enoyl-6,7-dihydro-4H-thiazolo[5,4-c]pyridin-2-yl)thieno[3,2-c]pyridin-4-yl]isoindolin-1-one], in test [1] (setting [3]), the “% of modification” value is “A (percent of modification of PIK3CA protein ≥75%)”. Further, the IC50 in test [2] (setting [4]) was under 100 nM.
As to `C=CC(=O)N1CCn2nc(-c3nc(-c4cnc5c(c4)CN(C)CC5(F)F)c4ccsc4c3-c3c(F)cc(F)cc3OCCOC)cc2[C@H]1C` [Compound 1152, 1-((R)-2-((S)-7-(2,4-difluoro-6-(2-methoxyethoxy)phenyl)-4-(8,8-difluoro-6-methyl-5,6,7,8-tetrahydro-1,6-naphthyridin-3-yl)thieno[3,2-c]pyridin-6-yl)-4-methyl-6,7-dihydropyrazolo[1,5-a]pyrazin-5(4H)-yl)prop-2-en-1-one], the “% of modification” value in test [1] (setting [5]) is given as “A (percent of modification of PIK3CA protein ≥75%)”. Besides, the IC50 in test [2] (Homo sapiens, BT-474, Compounds 1000-1279) was under 100 nM.
Consider `C=CC(=O)N1Cc2cc(-c3nc(-c4cnn(CC(F)F)c4)c4ccsc4c3-c3c(F)cc(F)cc3OCCOC)nn2C[C@H]1C` [Compound 727], for which the “% of modification” value in test [1] (setting [3]) is given as “A (percent of modification of PIK3CA protein ≥75%)”. For the same compound, the IC50 in test [2] (Compounds 10-999) is under 100 nM.
As for `C=CC(=O)N1Cc2cc(-c3nc(-c4cnn(C(C)(C)CO)c4)c4ccsc4c3-c3c(F)cc(F)cc3OCCOC)nn2C[C@H]1C` [Compound 738], the “% of modification” value in test [1] (setting [3]) was “A (percent of modification of PIK3CA protein ≥75%)”. For the same compound, the IC50 in test [2] (Compounds 10-999) was under 100 nM.
For `C=CC(=O)N1Cc2cc(-c3nc(-c4cnnc(C)c4)c4ccsc4c3-c3c(F)cc(F)cc3OCCO)nn2C(C)C1` (stereo not shown) [Compound 788], in that order: “A (percent of modification of PIK3CA protein ≥75%)” and under 100 nM.
With `C=CC(=O)N1CCn2nc(-c3nc(-c4cn(C)cn4)c4ccsc4c3-c3c(F)cc(F)cc3OCCOC)cc2[C@H]1C` [Compound 741], the “% of modification” value in test [1] (setting [3]) is on record as “A (percent of modification of PIK3CA protein ≥75%)”. In addition, the half-maximal inhibitory concentration (IC50) in test [2] (Compounds 10-999) was under 100 nM.
For `C=CC(=O)N1CCc2nc(-c3nc(-c4ccc5c(c4)CCNC5)c4ccsc4c3-c3ccc(F)cc3OCCOC)n(C)c2C1` [Compound 100], in that order: “A (percent of modification of PIK3CA protein ≥75%)” and 100 to 1000 nM.
On to `C=CC(=O)N1CCc2ncc(-c3nc(-c4cn(C)cn4)c4ccsc4c3-c3c(F)cc(F)cc3OCCOC)cc2C1` [Compound 943], for which the “% of modification” value in test [1] (setting [5]) is given as “A (percent of modification of PIK3CA protein ≥75%)”. In addition, in test [2] (Compounds 10-999), the half-maximal inhibitory concentration (IC50) was under 100 nM.
Take `C=CC(=O)N1CCn2nc(-c3nc(-c4ccc5nn(C)cc5c4)c4ccsc4c3-c3c(F)cc(F)cc3OCC(C)(C)O)cc2[C@H]1C` [Compound 1129]: the “% of modification” value in test [1] (setting [5]) is recorded as “A (percent of modification of PIK3CA protein ≥75%)”. In addition, the 50% inhibitory concentration (IC50) in test [2] (Compounds 1000-1279) was under 100 nM.
With `C=CC(=O)N1CCn2nc(-c3nc(-c4cccc(CCN(C)C)c4)c4ccsc4c3-c3c(F)cc(F)cc3OCCOC)cc2C1C` (stereo not shown) [Compound 1084], the “% of modification” value in test [1] (setting [5]) is recorded as “A (percent of modification of PIK3CA protein ≥75%)”. The IC50 in test [2] (Compounds 1000-1279) was under 100 nM.
Taken in the same sequence, the figures for `C=CC(=O)N1CCn2nc(-c3nc(-c4ccc(OCCN(C)C)c(F)c4)c4ccsc4c3-c3c(F)cc(F)cc3OCCOC)cc2C1C` (stereo not shown) [Compound 1077] were “A (percent of modification of PIK3CA protein ≥75%)” and under 100 nM.
As for `C=CC(=O)N1CC(n2cc(-c3nc(-c4ccc(S(=O)(=O)NC)cc4)c4ccsc4c3-c3ccc(F)cc3OC)cn2)C1` [Compound 196], in test [1] (setting [3]), the “% of modification” value is reported as “A (percent of modification of PIK3CA protein ≥75%)”. Further, in test [2] (Compounds 10-999), the IC50 was in the range of 100 to 1000 nM.
On to `C=CC(=O)N1CC(n2cc(-c3nc(-c4ccc5c(c4)CNC(=O)C5)c4ccsc4c3-c3ccc(F)cc3OC)cn2)C1` [Compound 79], for which the “% of modification” value in test [1] (setting [3]) is recorded as “A (percent of modification of PIK3CA protein ≥75%)”. The 50% inhibitory concentration (IC50) in test [2] (Compounds 10-999) is under 100 nM.
Turning to `C=CC(=O)N1CC(n2cc(-c3nc(-c4ccc5c(c4)CCNC5)c4ccsc4c3-c3ccc(F)cc3OC)cn2)C1` [Compound 82, 1-[3-[4-[7-(4-fluoro-2-methoxy-phenyl)-4-(1,2,3,4-tetrahydroisoquinolin-6-yl)thieno[3,2-c]pyridin-6-yl]pyrazol-1-yl]azetidin-1-yl]prop-2-en-1-one], the “% of modification” value in test [1] (setting [3]) is given as “A (percent of modification of PIK3CA protein ≥75%)”. The IC50 in test [2] (setting [4]) was under 100 nM.
For the compound `C=CC(=O)N1CCn2nc(-c3nc(-c4ccnc(N)c4)c4ccsc4c3-c3ccc(F)cc3OCC3CCNC(=O)C3)cc2C1` (stereo not shown) [Compound 249], the “% of modification” value in test [1] (setting [3]) is “A (percent of modification of PIK3CA protein ≥75%)”. For the same compound, the IC50 in test [2] (Compounds 10-999) was under 100 nM.
For `C=C(F)C(=O)N1Cc2cc(-c3nc(-c4ccc5c(c4)CCN(C)C5)c4ccsc4c3-c3c(F)cc(F)cc3OC[C@@H](C)O)nn2C[C@H]1C` [Compound 575], the “% of modification” value in test [1] (setting [3]) is “D (percent of modification <25%)”. Also, the 50% inhibitory concentration (IC50) in test [2] (Compounds 10-999) lay in the range of 100 to 1000 nM.
Take `C=C(F)C(=O)N1CCn2nc(-c3nc(-c4ccc5c(c4)[C@@H](O)CC5)c4ccsc4c3-c3ccc(F)cc3OC(C)C)cc2C1` [Compound 308]: the “% of modification” value in test [1] (setting [3]) is listed as “A (percent of modification of PIK3CA protein ≥75%)”. The IC50 in test [2] (Compounds 10-999) lay within 100 to 1000 nM.
In the case of `C=CC(=O)N1Cc2cc(-c3nc(-c4ccc5c(c4)CNC5=O)c4ccsc4c3-c3c(F)cc(F)cc3OCCOC)nn2C[C@H]1C` [Compound 691], the “% of modification” value in test [1] (setting [3]) is listed as “A (percent of modification of PIK3CA protein ≥75%)”. In addition, the 50% inhibitory concentration (IC50) in test [2] (Compounds 10-999) is under 100 nM.
For `C=CC(=O)N1CCc2nc(-c3nc(-c4ccc5c(c4)CCNC5)c4ccsc4c3-c3ccc(F)cc3OC(C)C)sc2C1` [Compound 155], the “% of modification” value in test [1] (setting [3]) was “A (percent of modification of PIK3CA protein ≥75%)”. Also, the IC50 in test [2] (Compounds 10-999) is under 100 nM.
On to `C=CC(=O)N1CCn2nc(-c3nc(-c4cnc(N5CCN(C)CC5)nc4)c4ccsc4c3-c3c(F)cc(F)cc3OCCOC)cc2[C@H]1C` [Compound 951, 1-((R)-2-((S)-7-(2,4-difluoro-6-(2-methoxyethoxy)phenyl)-4-(2-(4-methylpiperazin-1-yl)pyrimidin-5-yl)thieno[3,2-c]pyridin-6-yl)-4-methyl-6,7-dihydropyrazolo[1,5-a]pyrazin-5(4H)-yl)prop-2-en-1-one], for which the “% of modification” value in test [1] (setting [5]) was “A (percent of modification of PIK3CA protein ≥75%)”. The IC50 in test [2] (setting [4]) is under 100 nM.
As to `C=CC(=O)N1CCn2nc(-c3nc(-c4ccc5c(c4)C4(CC4)CN(C)C5)c4ccsc4c3-c3c(F)cc(F)cc3OCCOC)cc2C1C` (stereo not shown) [Compound 1193], the “% of modification” value in test [1] (setting [5]) is “A (percent of modification of PIK3CA protein ≥75%)”. The IC50 in test [2] (Compounds 1000-1279) was under 100 nM.
Take `C=CC(=O)N1CC[C@H](n2cc(-c3nc(-c4ccc5c(c4)CCNC5)c4ccsc4c3-c3ccc(F)cc3OCCOC)ccc2=O)[C@H]1C` [Compound 188]: the “% of modification” value in test [1] (setting [3]) was “A (percent of modification of PIK3CA protein ≥75%)”. In addition, in test [2] (Compounds 10-999), the IC50 was 100 to 1000 nM.
As for `C=CC(=O)N1CCc2ncc(-c3nc(-c4cnc5c(c4)CNC(=O)C5)c4ccsc4c3-c3ccc(F)cc3OCCOC)cc2C1` [Compound 117], in test [1] (setting [3]), the “% of modification” value was “A (percent of modification of PIK3CA protein ≥75%)”. Also, in test [2] (Compounds 10-999), the IC50 was under 100 nM.
Taken in the same sequence, the figures for `C=CC(=O)N1Cc2cc(-c3nc(-c4cnn(CC(C)(C)O)c4)c4ccsc4c3-c3c(F)cc(F)cc3OCCOC)nn2[C@@H](C)C1` [Compound 491] were “A (percent of modification of PIK3CA protein ≥75%)” and under 100 nM.
In the case of `C=CC(=O)N1Cc2cc(-c3nc(-c4ccc5c(c4)CCN(C)C5)c4ccsc4c3-c3c(F)cc(F)cc3OC[C@@H](C)O)nn2[C@@H](C)C1` [Compound 589], the “% of modification” value in test [1] (setting [3]) is reported as “D (percent of modification <25%)”. In test [2] (Compounds 10-999), the IC50 is under 100 nM.
Regarding `C=CC(=O)N1CCc2ncc(-c3nc(-c4ccc5c(c4)CS(=O)(=O)C5)c4ccsc4c3-c3ccc(F)cc3OCCOC)cc2C1` [Compound 111], the “% of modification” value in test [1] (setting [3]) is given as “A (percent of modification of PIK3CA protein ≥75%)”. Also, the IC50 in test [2] (Compounds 10-999) was under 100 nM.
Taken in the same sequence, the figures for `C=CC(=O)N1Cc2cc(-c3nc(-c4ccc5cn(C)nc5c4)c4ccsc4c3-c3c(F)cc(F)cc3OCCO)nn2C(C)C1` (stereo not shown) [Compound 783] were “A (percent of modification of PIK3CA protein ≥75%)” and under 100 nM.
For `C=CC(=O)N1CCn2nc(-c3nc(-c4ccc5c(c4)CNC5=O)c4ccsc4c3-c3c(F)cc(F)cc3OCCOC)cc2[C@H]1C` [Compound 617, 5-((S)-6-((R)-5-acryloyl-4-methyl-4,5,6,7-tetrahydropyrazolo[1,5-a]pyrazin-2-yl)-7-(2,4-difluoro-6-(2-methoxyethoxy)phenyl)thieno[3,2-c]pyridin-4-yl)isoindolin-1-one], in that order: “A (percent of modification of PIK3CA protein ≥75%)” and under 100 nM.
